We go through four compounds from publication PMC10384572, “Marine Meroterpenoids Isolated from Gongolaria abies-marina Induce Programmed Cell Death in Naegleria fowleri” (Pharmaceuticals, 2023).

Data set [1] has as its system N. fowleri ATCC® 30808. Put plainly: In vitro activity against N. fowleri trophozoites (alamarBlue), strain ATCC 30808. Type of data set: cell-based, Naegleria fowleri. The settings on record: for IC50: Naegleria fowleri, ATCC30808, N. fowleri trophozoites, 48 h, alamarBlue, mean ± SD, read-out: IC50 ATCC® 30808; for Anti-Naegleria activity (in words): both tested strains of N. fowleri. How it is done: (§1) The in vitro activity against N. fowleri trophozoites was evaluated in two different strains from the American Type Culture Collection (LG Promochem, Barcelona, Spain), ATCC® 30808™ and ATCC® 30215™. Cells were axenically grown in 2% Bactocasitone (w/v) medium (Thermo Fisher Scientific, Madrid, Spain) at 37 °C. Moreover, 10% (v/v) of fetal bovine serum (FBS) 0.3 μg/mL of Penicillin G Sodium Salt and 0.5 mg/mL of Streptomycin sulphate (Sigma-Aldrich, Madrid, Spain) were also added to the Bactocasitone medium.
(§2) For these assays, a colorimetric assay was conducted using the alamarBlue® reagent. Briefly, N. fowleri trophozoites were seeded in duplicate in a 96-well microtiter plate. After that, different concentrations of the evaluated meroterpenoids diluted in fresh Bactocasitone were added to the wells. The negative control consisted on the trophozoites incubated with the medium alone. Lastly, the alamarBlue® (Life Technologies, Madrid, Spain) reagent was added. Plates were incubated in slight agitation at 37 °C. After 48 h, the fluorescence of the wells was analyzed in an EnSpire Multimode Plate Reader (Perkin Elmer, Madrid, Spain) using a wavelength of excitation of 570 nm and a wavelength of emission of 585 nm.
(§3) In order to calculate the IC50 and IC90, a nonlinear regression analysis with a 95% confidence limit was performed.
(§4) The in vitro IC50, IC90, and CC50 of the compounds were determined by a non-linear regression with a 95% confidence limit. The SigmaPlot 12.0 software (Systat Sofware Inc., London, UK) was used to perform the data analysis using a paired two-tailed t-test. Values of p < 0.05 were considered significant. The data represent the mean value and the SD of the conducted three different experiments.

Data set [2] deals with N. fowleri ATCC® 30215. As to the kind of experiment: In vitro activity against N. fowleri trophozoites (alamarBlue), strain ATCC 30215. Format: cell-based. Conditions: Naegleria fowleri, ATCC30215, 48 h, mean ± SD. Here is the method: as §1, §2, §3, §4
The nature of data set [3]: In vitro cytotoxicity against murine macrophages (alamarBlue). Type of data set: cell-based. The settings on record: mouse, J774A.1 murine macrophages (ATCC TIB-67), murine macrophages J774A.1, 24 h, mean ± SD. How it is done:
Murine macrophages from the J774A.1 cell line (ATCC® TIB-67) were maintained in Dulbecco’s Modified Eagle’s medium (DMEM) in order to evaluate the toxicity of the compounds. In addition, 10% (v/v) FBS and 10 μg/mL gentamicin (Sigma-Aldrich, Madrid, Spain) were added to the growth medium. Cells were grown in a 5% CO2 atmosphere at 37 °C.
For the cytotoxicity assays, the same protocol as detailed in Section 4.4 above was used. Murine macrophages were incubated with serial dilutions of the evaluated compounds at 37 °C in a 5% CO2 atmosphere over 24 h. The obtained data were analyzed as described in the previous section in order to calculate the CC50.
as §4

For data set [4], the system named is Acanthamoeba. More on the design: method as in PMID 36916403. Conditions: cited from earlier work.

Consider `C[C@@H]1[C@H](O)[C@@H](C)/C=C/C=C/C=C/C=C/C=C/C=C/C=C/[C@H](O[C@@H]2O[C@H](C)[C@@H](O)[C@H](N)[C@@H]2O)C[C@@H]2O[C@](O)(C[C@@H](O)C[C@@H](O)[C@H](O)CC[C@@H](O)C[C@@H](O)CC(=O)O[C@H]1C)C[C@H](O)[C@H]2C(=O)O` [Amphotericin B, amphotericin B, reference compound], for which the IC50 in data set [1] stood at 0.12 ± 0.03 µM; in data set [2], 0.16 ± 0.03 µM. Also, in data set [3], the CC50 at 24 h was > 200 µM.

For `COc1c(C)cc(O)cc1C/C=C(\C)CC(=O)/C=C(\C)CCC[C@@H](C)[C@H]1C[C@@H](O)C(C)(C)O1` [Gongolarone A (4), gongolarone A], in data set [1], the IC50 is > 100 µM and the “Anti-Naegleria activity (in words)” value is listed as “no anti-Naegleria activity”. The CC50 at 24 h in data set [3] was > 400 µM. Moreover, the “Activity against tested species of Acanthamoeba (in words)” value in data set [4] is recorded as “most active”.

Turning to `COc1c(C)cc(O)cc1CC/C(C)=C/C(=O)/C=C(\C)CCC[C@@H](C)C(=O)/C=C/C(C)(C)O` [Gongolarone C (5), gongolarone C], the IC50 in data set [1] is > 100 µM. In addition, the figures for the “Anti-Naegleria activity (in words)” value in data set [1] (listed as 5) and in data set [1] (listed as gongolarone C (5)) were “no anti-Naegleria activity” and “loss of activity”, respectively. Besides, the CC50 at 24 h in data set [3] is > 400 µM. In addition, the “Activity against tested species of Acanthamoeba (in words)” value in data set [4] is on record as “most active”.

For `CCCCCCCCCCCCCCCCOP(=O)([O-])OCC[N+](C)(C)C` [Miltefosine, miltefosine, reference compound], the results for the IC50 in data set [1] and in data set [2] were 38.7 ± 4.23 µM and 81.6 ± 7.23 µM, respectively. The compound further yielded a CC50 at 24 h in data set [3] of 128 ± 8.85 µM.
